# Measurements published in patent US20260271931A1, “HERBICIDAL MIXTURES” (Bayer Aktiengesellschaft, priority 2023, published 2026).
# Where two headings read alike, the source gives them in different places.
# What was measured:
# Type in all cases: in vivo
# Lolium rigidum (LOLRI) = assay: Post-emergence action against weeds, greenhouse pot test, visual rating: Lolium rigidum
# Eleusine indica (ELEIN) = assay: Post-emergence action against weeds, greenhouse pot test, visual rating: Eleusine indica; details: for pest or weed control at 150 g/ha: 150 g a.i./ha; for pest or weed control at 50 g/ha: 50 g a.i./ha; for pest or weed control at 15 g/ha: 15 g a.i./ha
# Procedure: (§1) When the observed efficacies already exceed the formal sum total of the values of the tests with individual applications, they also exceed the expected value according to Colby, which is calculated using the formula below and is likewise regarded as an indication of synergism (cf. S. R. Colby; in Weeds 15 (1967) pp. 20 to 22):
# (§2) where: • A=efficacy of the active ingredient (A) in % at an application rate of a [g a.i./ha]; • B=efficacy of the active ingredient (B) in % at an application rate of b [g a.i./ha]; • E^C=expected value of the effect of the combination (A)+(B) in % at the combined application rate a+b [g a.i./ha].
# (§3) The observed values (E^A) from the experiments, given suitable low dosages, show an effect of the combinations exceeding the expected values according to Colby (E^C) (Δ).
# (§4) Seeds of mono- and dicotyledonous weeds were placed in sandy loam in pots, covered with soil and grown in a greenhouse under good growth conditions (temperature, air humidity, water supply). Two to three weeks after sowing, the test plants were treated at the two- to four-leaf stage with the compositions of the invention. The compositions of the invention, formulated as spray powders or as emulsion concentrates, were sprayed onto the green parts of the plant in various dosages with an application rate equivalent to […] of water. After the test plants had been kept in the greenhouse under optimum growth conditions for 3 weeks, the activity of the preparations was rated visually in comparison to untreated controls.
# (§5) 100% efficacy means complete control of the particular weed tested.
# (§6) 0% efficacy means zero control of the particular weed tested.
# (§7) Expected values according to Colby are reported under E.
# (§8) The exceedance of the expected value E is given as Δ (=synergistic effect).
# (§9) The rating period is reported in days after application (DAT).
# [1] = tested on: Echinochloa crus-galli (ECHCG); assay: Post-emergence action against weeds, greenhouse pot test, visual rating: Echinochloa crus-galli
# Kochia scoparia (KCHSC) = assay: Post-emergence action against weeds, greenhouse pot test, visual rating: Kochia scoparia
# [2] = tested on: Brachiaria platyfylla (BRAPP); assay: Post-emergence action against weeds, greenhouse pot test, visual rating: Brachiaria platyfylla; details: post-emergence
# Procedure: as §1, §2, §3, §4, §5, §6, §7, §8, §9
# Bidens pilosa (BIDPI) = assay: Post-emergence action against weeds, greenhouse pot test, visual rating: Bidens pilosa
# [3] = tested on: Sorghum halepense (SORHA); assay: Post-emergence action against weeds, greenhouse pot test, visual rating: Sorghum halepense
# Procedure: as §1, §2, §3, §4, §5, §6, §7, §8, §9
# Avena fatua (AVEFA) = assay: Post-emergence action against weeds, greenhouse pot test, visual rating: Avena fatua
# Centaurea cyanus (CENCY) = assay: Post-emergence action against weeds, greenhouse pot test, visual rating: Centaurea cyanus; details: 3 g a.i./ha
# Procedure: as §1, §2, §3, §4, §5, §6, §7, §8, §9
# [4] = tested on: Pharbitis purpurea (PHBPU); assay: Post-emergence action against weeds, greenhouse pot test, visual rating: Pharbitis purpurea
# Procedure: as §1, §2, §3, §4, §5, §6, §7, §8, §9
# [5] = Eleusine indica, post-emergence, 240 h, read-out: Herbicidal effect [%] on ELEIN 10 DAT
# [6] = Eleusine indica, post-emergence, 504 h, read-out: Herbicidal effect [%] on ELEIN 21 DAT
# [7] = Bassia scoparia, post-emergence, 504 h, read-out: Herbicidal effect [%] on KCHSC 21 DAT
# [8] = 240 h, read-out: Herbicidal effect [%] on BRAPP 10 DAT
compound,measurement,setting,value
"CCOCN(C(=O)CCl)c1c(C)cccc1CC [Acetochlor, acetochlor]",Herbicidal effect [%] on LOLRI 10 DAT,Lolium rigidum (LOLRI); 150 g a.i./ha,40%
same,pest or weed control at 150 g/ha,"Lolium rigidum (LOLRI); Lolium rigidum, 504 h, 150 g a.i./ha, 21 DAT, read-out: Herbicidal effect [%] on LOLRI 21 DAT",0%
same,pest or weed control at 150 g/ha,Eleusine indica (ELEIN); [5],80%
same,pest or weed control at 150 g/ha,Eleusine indica (ELEIN); [6],90%
"COc1c(Cl)ccc(Cl)c1C(=O)O [Dicamba, dicamba]",Herbicidal effect [%] on ECHCG 10 DAT,[1]; 5 g a.i./ha,0%
same,pest or weed control at 5 g/ha,"Lolium rigidum (LOLRI); Lolium rigidum, 504 h, read-out: Herbicidal effect [%] on LOLRI 21 DAT",0%
same,pest or weed control at 5 g/ha,Eleusine indica (ELEIN); [5],0%
same,pest or weed control at 5 g/ha,Eleusine indica (ELEIN); [6],0%
same,Herbicidal effect [%] on KCHSC 10 DAT,Kochia scoparia (KCHSC); 5 g a.i./ha,20%
same,pest or weed control at 5 g/ha,Kochia scoparia (KCHSC); [7],20%
same,pest or weed control at 5 g/ha,[2]; [8],0%
same,pest or weed control at 5 g/ha,"[2]; 504 h, read-out: Herbicidal effect [%] on BRAPP 21 DAT",0%
same,Herbicidal effect [%] on BIDPI 10 DAT,Bidens pilosa (BIDPI); 5 g a.i./ha,30%
same,Herbicidal effect [%] on BIDPI 21 DAT,Bidens pilosa (BIDPI); 5 g a.i./ha,40%
"Cc1ccc2c(c1)[C@H](Nc1nc(N)nc(C(C)F)n1)[C@@H](C)C2 (some centres unmarked) [Indaziflam, indaziflam]",Herbicidal effect [%] on ECHCG 10 DAT,[1]; 3 g a.i./ha,0%
same,Herbicidal effect [%] on LOLRI 21 DAT,"Lolium rigidum (LOLRI); 3 g a.i./ha, 21 DAT",0%
same,Herbicidal effect [%] on ELEIN 21 DAT,Eleusine indica (ELEIN); 3 g a.i./ha,10%
same,Herbicidal effect [%] on SORHA 21 DAT,"[3]; 3 g a.i./ha, 21 DAT",10%
same,Herbicidal effect [%] on AVEFA 10 DAT,"Avena fatua (AVEFA); 10 DAT, 3 g a.i./ha",0%
same,Herbicidal effect [%] on KCHSC 10 DAT,Kochia scoparia (KCHSC); 3 g a.i./ha,10%
same,Herbicidal effect [%] on KCHSC 21 DAT,Kochia scoparia (KCHSC); 3 g a.i./ha,20%
same,Herbicidal effect [%] on CENCY 10 DAT,Centaurea cyanus (CENCY),20%
same,Herbicidal effect [%] on CENCY 21 DAT,Centaurea cyanus (CENCY),10%
same,Herbicidal effect [%] on BIDPI 21 DAT,Bidens pilosa (BIDPI); 3 g a.i./ha,30%
"CCNc1nc(Cl)nc(NC(C)(C)C)n1 [Terbuthylazine, terbuthylazine]",Herbicidal effect [%] on ECHCG 10 DAT,[1]; 50 g a.i./ha,10%
same,Herbicidal effect [%] on ECHCG 21 DAT,[1]; 50 g a.i./ha,0%
same,pest or weed control at 50 g/ha,"Lolium rigidum (LOLRI); Lolium rigidum, 504 h, 50 g a.i./ha, 21 DAT, read-out: Herbicidal effect [%] on LOLRI 21 DAT",0%
same,pest or weed control at 50 g/ha,Eleusine indica (ELEIN); [5],85%
same,pest or weed control at 50 g/ha,Eleusine indica (ELEIN); [6],70%
same,pest or weed control at 50 g/ha,"[2]; 240 h, 50 g a.i./ha, read-out: Herbicidal effect [%] on BRAPP 10 DAT",10%
"CP(=O)(O)CCC(N)C(=O)O (centres unmarked) [Glufosinate, glufosinate]",pest or weed control at 30 g/ha,Eleusine indica (ELEIN); [5],10%
"CCNc1nc(Cl)nc(NC(C)C)n1 [Atrazine, atrazine]",pest or weed control at 50 g/ha,Eleusine indica (ELEIN); [5],30%
same,pest or weed control at 50 g/ha,Eleusine indica (ELEIN); [6],0%
same,Herbicidal effect [%] on PHBPU 10 DAT,"[4]; 50 g a.i./ha, 10 DAT",30%
same,Herbicidal effect [%] on PHBPU 21 DAT,[4]; 50 g a.i./ha,20%
"Cn1nc(C(F)(F)F)c(CS(=O)(=O)C2=NOC(C)(C)C2)c1OC(F)F [Pyroxasulfone, pyroxasulfone]",pest or weed control at 15 g/ha,Eleusine indica (ELEIN); [5],10%
same,pest or weed control at 15 g/ha,Eleusine indica (ELEIN); [6],60%
same,pest or weed control at 15 g/ha,"Kochia scoparia (KCHSC); Bassia scoparia, post-emergence, 504 h, 15 g a.i./ha, read-out: Herbicidal effect [%] on KCHSC 21 DAT",0%
same,pest or weed control at 15 g/ha,"[2]; 240 h, 15 g a.i./ha, read-out: Herbicidal effect [%] on BRAPP 10 DAT",20%
"CCSC(C)CC1CC(=O)C(/C(CC)=N/OC/C=C/Cl)=C(O)C1 (centres unmarked) [Clethodim, clethodim]",Herbicidal effect [%] on LOLRI 10 DAT,Lolium rigidum (LOLRI); 8 g a.i./ha,80%
same,pest or weed control at 8 g/ha,Eleusine indica (ELEIN); [6],30%
same,Herbicidal effect [%] on SORHA 10 DAT,"[3]; 8 g a.i./ha, 10 DAT",80%
same,pest or weed control at 8 g/ha,Kochia scoparia (KCHSC); [7],0%
same,pest or weed control at 8 g/ha,[2]; [8],85%
"COc1c(Cl)ccc(-c2nc(C(=O)O)c(Cl)c(N)c2F)c1F [Florpyrauxifen, florpyrauxifen]",Herbicidal effect [%] on PHBPU 21 DAT,[4]; 1 g a.i./ha,10%
"CCS(=O)(=O)c1cccnc1S(=O)(=O)NC(=O)Nc1nc(OC)cc(OC)n1 [Rimsulfuron, rimsulfuron]",Herbicidal effect [%] on ECHCG 21 DAT,[1]; 0.9 g a.i./ha,90%
same,pest or weed control at 0.9 g/ha,"Eleusine indica (ELEIN); Eleusine indica, post-emergence, 504 h, 0.9 g a.i./ha, read-out: Herbicidal effect [%] on ELEIN 21 DAT",40%
same,Herbicidal effect [%] on AVEFA 21 DAT,"Avena fatua (AVEFA); 21 DAT, 0.9 g a.i./ha",50%
same,pest or weed control at 0.9 g/ha,"Avena fatua (AVEFA); Avena fatua, 240 h, 10 DAT, 0.9 g a.i./ha, read-out: Herbicidal effect [%] on AVEFA 10 DAT",60%
same,Herbicidal effect [%] on PHBPU 21 DAT,[4]; 0.9 g a.i./ha,10%
